Source: patent US20250326771A1, “PIPERAZINE DERIVATIVES USEFUL IN HIV THERAPY” (VIIV HEALTHCARE COMPANY, priority 2022, published 2025)

How the values were obtained:
cell-associated HIV RNA = conditions: primary cells / resting CD4+ T cells; cited from earlier work
[1] = tested on: Jurkat HIV-luciferase clones; test: Jurkat latency reversal assay; format: cell-based; conditions: Homo sapiens, 48 h; Jurkat latency reversal assay potency; read-out: Jurkat pEC50 (converted)
Summary of the method: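 Compounds are titrated 3-fold over 14 points from 10 μM in duplicate at 0.5% DMSO. Clones C16, 115 and N6, grown with 500 nM EFV, are co-incubated for 48 h at 37° C. Virally driven luciferase is read by luminescence, and EC50 and maximal percent activation versus vehicle come from a four-parameter model.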

XIAP-BIR3 = XIAP-BIR3 (Homo sapiens (Human), UniProt P98170); test: BIR binding assay (FRET competition), XIAP BIR3; conditions: for XIAP BIR3 vs BIR2 separation window: fold separation (FS) for XIAP
Summary of the method: (§1)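 Compounds tested as 15-point, 3-fold series displacing 200 nM AlexaFluor647-labelled SMAC peptide from His-tagged BIR domain (cIAP1-BIR3 50 nM; cIAP1-BIR2 and cIAP2-BIR2 325 nM; XIAP-BIR3 100 nM), pH 7.4, 60 min. Eu-W1024 (2 nM) added 30 min; emission ratio fitted for IC50.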

cIAP1-BIR2 = cIAP1-BIR2 (Homo sapiens (Human), UniProt Q13490); test: BIR binding assay (FRET competition), cIAP1 BIR2
Summary of the method: as §1

cIAP2-BIR2 = cIAP2-BIR2 (Homo sapiens (Human), UniProt Q13489); test: BIR binding assay (FRET competition), cIAP2 BIR2
Summary of the method: as §1

cIAP1-BIR3 = cIAP1-BIR3 (Homo sapiens (Human), UniProt Q13490); test: BIR binding assay (FRET competition), cIAP1 BIR3; conditions: for cIAP1 BIR3 vs BIR2 separation window: fold separation (FS) for cIAP1
Summary of the method: as §1

XIAP-BIR2 = XIAP-BIR2 (Homo sapiens (Human), UniProt P98170); test: BIR binding assay (FRET competition), XIAP BIR2; conditions: FRET competition binding; read-out: XIAP BIR2 (pIC50) (converted)
Summary of the method: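 Competitive TR-FRET used His-tagged XIAP-BIR2 (200 nM) and 200 nM AlexaFluor647-labelled AVPIAQKSE SMAC peptide in HEPES buffer pH 7.4 with CHAPS, glycerol and DTT, incubated 60 min before 30 min with 2 nM Eu-W1024. The 615/665 nm ratio from a 15-point, 3-fold series was fit with a four-parameter model for IC50/pIC50.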

cIAP2-BIR3 = cIAP2-BIR3 (Homo sapiens (Human), UniProt Q13489); test: BIR binding assay (FRET competition), cIAP2 BIR3; conditions: for cIAP2 BIR3 vs BIR2 separation window: fold separation (FS) for cIAP2
cIAP2-BIR3, sequence (Q13489 238-349): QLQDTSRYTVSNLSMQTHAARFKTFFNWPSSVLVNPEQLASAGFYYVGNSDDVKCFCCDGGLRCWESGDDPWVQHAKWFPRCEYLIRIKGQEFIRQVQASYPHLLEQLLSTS

cIAP1-BIR2, sequence (Q13490 173-257): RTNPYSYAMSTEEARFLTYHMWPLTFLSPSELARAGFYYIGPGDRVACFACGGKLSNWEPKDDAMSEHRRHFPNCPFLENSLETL
cIAP1-BIR3, sequence (Q13490 253-363): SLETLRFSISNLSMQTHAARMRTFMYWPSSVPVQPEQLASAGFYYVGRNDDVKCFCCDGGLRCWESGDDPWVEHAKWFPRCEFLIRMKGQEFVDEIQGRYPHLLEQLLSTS
XIAP-BIR3, sequence (P98170 241-356): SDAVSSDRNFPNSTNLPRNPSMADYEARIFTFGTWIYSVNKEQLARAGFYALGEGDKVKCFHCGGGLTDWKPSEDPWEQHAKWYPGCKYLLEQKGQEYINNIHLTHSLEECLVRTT
cIAP2-BIR2, sequence (Q13489 158-242): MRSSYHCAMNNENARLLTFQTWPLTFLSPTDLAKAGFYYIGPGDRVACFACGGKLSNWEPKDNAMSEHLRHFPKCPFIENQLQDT
XIAP-BIR2, sequence (P98170 124-240): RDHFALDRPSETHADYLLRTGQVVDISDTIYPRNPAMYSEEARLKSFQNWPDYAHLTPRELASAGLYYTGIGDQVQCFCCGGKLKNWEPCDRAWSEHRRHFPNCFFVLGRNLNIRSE

## CN[C@@H](C)C(=O)N[C@H](C(=O)N1CCC[C@H]1C(=O)N[C@H]1c2ccccc2C[C@H]1OCC#CC#CCO[C@@H]1Cc2ccccc2[C@@H]1NC(=O)[C@@H]1CCCN1C(=O)[C@@H](NC(=O)[C@H](C)NC)C1CCCCC1)C1CCCCC1 [AZD5582]
cell-associated HIV RNA
  HIV caRNA induction: increase in cell-associated HIV RNA expression

## C[C@@H]1CN(CC(=O)N2CC(C)(C)c3[nH]c(=O)c(Cc4ccc(F)cc4)cc32)[C@@H](CN2CCO[C@H](C(=O)NCCCCNC(=O)[C@@H]3CN(C[C@H]4CN[C@H](C)CN4CC(=O)N4CC(C)(C)c5[nH]c(=O)c(Cc6ccc(F)cc6)cc54)CCO3)C2)CN1 [Example 126, (2S,2'S)-N,N′-(butane-1,4-diyl)bis(4-(((2R,5R)-1-(2-(6-(4-fluorobenzyl)-3,3-dimethyl-5-oxo-2,3,4,5-tetrahydro-1H-pyrrolo[3,2-b]pyridin-1-yl)-2-oxoethyl)-5-methylpiperazin-2-yl)methyl)morpholine-2-carboxamide)]
[1]
  EC50: 63.1 to 316 nM
XIAP-BIR3
  IC50: 7.94 to 15.8 nM
  XIAP BIR3 vs BIR2 separation window: ++++ (FS>10,000)
cIAP1-BIR2
  IC50: 1000 to 3160 nM
cIAP2-BIR2
  IC50: 1000 to 3160 nM
cIAP1-BIR3
  IC50: 7.94 to 15.8 nM
  cIAP1 BIR3 vs BIR2 separation window: +++ (10,000>FS>1,000)
XIAP-BIR2
  IC50: 10000 to 51300 nM
cIAP2-BIR3
  IC50: 7.94 to 15.8 nM
  cIAP2 BIR3 vs BIR2 separation window: +++ (10,000>FS>1,000)

## C[C@@H]1CN(CC(=O)N2CC(C)(C)c3[nH]c(=O)c(Cc4ccc(F)cc4)cc32)[C@@H](CN2CCO[C@H](C(=O)N(C)CCCCN(C)C(=O)[C@@H]3CN(C[C@H]4CN[C@H](C)CN4CC(=O)N4CC(C)(C)c5[nH]c(=O)c(Cc6ccc(F)cc6)cc54)CCO3)C2)CN1 [Example 127, (2S,2'S)-N,N′-(butane-1,4-diyl)bis(4-(((2R,5R)-1-(2-(6-(4-fluorobenzyl)-3,3-dimethyl-5-oxo-2,3,4,5-tetrahydro-1H-pyrrolo[3,2-b]pyridin-1-yl)-2-oxoethyl)-5-methylpiperazin-2-yl)methyl)-N-methylmorpholine-2-carboxamide)]
[1]
  EC50: 63.1 to 316 nM
XIAP-BIR3
  IC50: 7.94 to 15.8 nM
  XIAP BIR3 vs BIR2 separation window: ++++ (FS>10,000)
cIAP1-BIR2
  IC50: 1000 to 3160 nM
cIAP2-BIR2
  IC50: 1000 to 3160 nM
cIAP1-BIR3
  IC50: 7.94 to 15.8 nM
  cIAP1 BIR3 vs BIR2 separation window: +++ (10,000>FS>1,000)
XIAP-BIR2
  IC50: 10000 to 51300 nM
cIAP2-BIR3
  IC50: 7.94 to 15.8 nM
  cIAP2 BIR3 vs BIR2 separation window: +++ (10,000>FS>1,000)

## C[C@@H]1CN(CC(=O)N2CC(C)(C)c3[nH]c(=O)c(Cc4ccc(F)cc4)cc32)[C@@H](CN2CCO[C@H](C(=O)NCCNC(=O)[C@@H]3CN(C[C@H]4CN[C@H](C)CN4CC(=O)N4CC(C)(C)c5[nH]c(=O)c(Cc6ccc(F)cc6)cc54)CCO3)C2)CN1 [Example 128, (2S,2'S)-N,N′-(ethane-1,2-diyl)bis(4-(((2R,5R)-1-(2-(6-(4-fluorobenzyl)-3,3-dimethyl-5-oxo-2,3,4,5-tetrahydro-1H-pyrrolo[3,2-b]pyridin-1-yl)-2-oxoethyl)-5-methylpiperazin-2-yl)methyl)morpholine-2-carboxamide)]
[1]
  EC50: 316 to 3310 nM
XIAP-BIR3
  IC50: 15.8 to 31.6 nM
  XIAP BIR3 vs BIR2 separation window: ++++ (FS>10,000)
cIAP1-BIR2
  IC50: 3160 to 10000 nM
cIAP2-BIR2
  IC50: 3160 to 10000 nM
cIAP1-BIR3
  IC50: 15.8 to 31.6 nM
  cIAP1 BIR3 vs BIR2 separation window: +++ (10,000>FS>1,000)
XIAP-BIR2
  IC50: 10000 to 51300 nM
cIAP2-BIR3
  IC50: 7.94 to 15.8 nM
  cIAP2 BIR3 vs BIR2 separation window: +++ (10,000>FS>1,000)

## C[C@@H]1CN(CC(=O)N2CC(C)(C)c3[nH]c(=O)c(Cc4ccc(F)cc4)cc32)[C@@H](CN2CCO[C@H](C(=O)NC3CCN(C(=O)[C@@H]4CN(C[C@H]5CN[C@H](C)CN5CC(=O)N5CC(C)(C)c6[nH]c(=O)c(Cc7ccc(F)cc7)cc65)CCO4)CC3)C2)CN1 [Example 129, (S)-4-(((2R,5R)-1-(2-(6-(4-fluorobenzyl)-3,3-dimethyl-5-oxo-2,3,4,5-tetrahydro-1H-pyrrolo[3,2-b]pyridin-1-yl)-2-oxoethyl)-5-methylpiperazin-2-yl)methyl)-N-(1-((S)-4-(((2R,5R)-1-(2-(6-(4-fluorobenzyl)-3,3-dimethyl-5-oxo-2,3,4,5-tetrahydro-1H-pyrrolo[3,2-b]pyridin-1-yl)-2-oxoethyl)-5-methylpiperazin-2-yl)methyl)morpholine-2-carbonyl)piperidin-4-yl)morpholine-2-carboxamide]
[1]
  EC50: 0.49 to 12.6 nM
XIAP-BIR3
  IC50: 15.8 to 31.6 nM
  XIAP BIR3 vs BIR2 separation window: ++++ (FS>10,000)
cIAP1-BIR2
  IC50: 22.4 to 1000 nM
cIAP2-BIR2
  IC50: 1000 to 3160 nM
cIAP1-BIR3
  IC50: 7.94 to 15.8 nM
  cIAP1 BIR3 vs BIR2 separation window: ++ (1,000>FS>100)
XIAP-BIR2
  IC50: 10000 to 51300 nM
cIAP2-BIR3
  IC50: 7.94 to 15.8 nM
  cIAP2 BIR3 vs BIR2 separation window: +++ (10,000>FS>1,000)

## C[C@@H]1CN(CC(=O)N2CC(C)(C)c3[nH]c(=O)c(Cc4ccc(F)cc4)cc32)[C@@H](CN2CCO[C@H](C(=O)N(C)CCCN(C)C(=O)[C@@H]3CN(C[C@H]4CN[C@H](C)CN4CC(=O)N4CC(C)(C)c5[nH]c(=O)c(Cc6ccc(F)cc6)cc54)CCO3)C2)CN1 [Example 130, (2S,2'S)-N,N′-(Propane-1,3-diyl)bis(4-(((2R,5R)-1-(2-(6-(4-fluorobenzyl)-3,3-dimethyl-5-oxo-2,3,4,5-tetrahydro-1H-pyrrolo[3,2-b]pyridin-1-yl)-2-oxoethyl)-5-methylpiperazin-2-yl)methyl)-N-methylmorpholine-2-carboxamide)]
[1]
  EC50: 12.6 to 63.1 nM
XIAP-BIR3
  IC50: 7.94 to 15.8 nM
  XIAP BIR3 vs BIR2 separation window: ++++ (FS>10,000)
cIAP1-BIR2
  IC50: 1000 to 3160 nM
cIAP2-BIR2
  IC50: 1000 to 3160 nM
cIAP1-BIR3
  IC50: 1.38 to 7.94 nM
  cIAP1 BIR3 vs BIR2 separation window: +++ (10,000>FS>1,000)
XIAP-BIR2
  IC50: 10000 to 51300 nM
cIAP2-BIR3
  IC50: 1.38 to 7.94 nM
  cIAP2 BIR3 vs BIR2 separation window: +++ (10,000>FS>1,000)

## C[C@@H]1CN(CC(=O)N2CC(C)(C)c3[nH]c(=O)c(Cc4ccc(F)cc4)cc32)[C@@H](CN2CCO[C@H](C(=O)N3CCCN(C(=O)[C@@H]4CN(C[C@H]5CN[C@H](C)CN5CC(=O)N5CC(C)(C)c6[nH]c(=O)c(Cc7ccc(F)cc7)cc65)CCO4)CC3)C2)CN1 [Example 131, 1,1′-(2,2′-((3R,3′R,6R,6′R)-(((2S,2'S)-(1,4-diazepane-1,4-dicarbonyl)bis(morpholine-2,4-diyl))bis(methylene))bis(3-methylpiperazine-6,1-diyl))bis(acetyl))bis(6-(4-fluorobenzyl)-3,3-dimethyl-1,2,3,4-tetrahydro-5H-pyrrolo[3,2-b]pyridin-5-one)]
[1]
  EC50: 12.6 to 63.1 nM
XIAP-BIR3
  IC50: 15.8 to 31.6 nM
  XIAP BIR3 vs BIR2 separation window: ++++ (FS>10,000)
cIAP1-BIR2
  IC50: 1000 to 3160 nM
cIAP2-BIR2
  IC50: 1000 to 3160 nM
cIAP1-BIR3
  IC50: 31.6 to 501 nM
  cIAP1 BIR3 vs BIR2 separation window: ++ (1,000>FS>100)
XIAP-BIR2
  IC50: 10000 to 51300 nM
cIAP2-BIR3
  IC50: 7.94 to 15.8 nM
  cIAP2 BIR3 vs BIR2 separation window: +++ (10,000>FS>1,000)

## C[C@@H]1CN(CC(=O)N2CC(C)(C)c3[nH]c(=O)c(Cc4ccc(F)cc4)cc32)[C@@H](CN2CCO[C@H](C(=O)N(C)CC3CCN(C(=O)[C@@H]4CN(C[C@H]5CN[C@H](C)CN5CC(=O)N5CC(C)(C)c6[nH]c(=O)c(Cc7ccc(F)cc7)cc65)CCO4)CC3)C2)CN1 [Example 132, (S)-4-(((2R,5R)-1-(2-(6-(4-fluorobenzyl)-3,3-dimethyl-5-oxo-2,3,4,5-tetrahydro-1H-pyrrolo[3,2-b]pyridin-1-yl)-2-oxoethyl)-5-methylpiperazin-2-yl)methyl)-N-((1-((S)-4-(((2R,5R)-1-(2-(6-(4-fluorobenzyl)-3,3-dimethyl-5-oxo-2,3,4,5-tetrahydro-1H-pyrrolo[3,2-b]pyridin-1-yl)-2-oxoethyl)-5-methylpiperazin-2-yl)methyl)morpholine-2-carbonyl)piperidin-4-yl)methyl)-N-methylmorpholine-2-carboxamide]
[1]
  EC50: 12.6 to 63.1 nM
XIAP-BIR3
  IC50: 15.8 to 31.6 nM
  XIAP BIR3 vs BIR2 separation window: ++++ (FS>10,000)
cIAP1-BIR2
  IC50: 3160 to 10000 nM
cIAP2-BIR2
  IC50: 1000 to 3160 nM
cIAP1-BIR3
  IC50: 7.94 to 15.8 nM
  cIAP1 BIR3 vs BIR2 separation window: +++ (10,000>FS>1,000)
XIAP-BIR2
  IC50: 10000 to 51300 nM
cIAP2-BIR3
  IC50: 7.94 to 15.8 nM
  cIAP2 BIR3 vs BIR2 separation window: +++ (10,000>FS>1,000)
